According to patent publication EP3033337B1, “SUBSTITUTED IMIDAZOLES AS N-TYPE CALCIUM CHANNEL BLOCKERS” (Janssen Pharmaceutica NV, priority 2013, dated 2015):
Like-named read-outs stand apart in the source and are kept apart here.

What was measured:
[1] = target: T1, human N-type Ca channel (Homo sapiens, UniProt Q00975); assay: Electrophysiological response, QPatch (depolarization -80 mV to +20 mV)
Description: The recombinant cell line described above was used in the measurement of electrophysiological properties with QPatch (Sophion). Cells were maintained in culture as mentioned above. Prior to the experiment, the flasks were moved to 30 °C and incubated for 48-72 hrs. On the day of assaying, cells were detached and harvested. The cell pellet was re-suspended in SMF4HEK (HyClone)/25mM HEPS at 2-5 million/ mL and placed on the QStirrer of the QPatch for 30-60 min prior to the start of the assay. […] Microtiter-Plate/Reference Buffer contained 140 mM TEA-Cl, 10mM BaCl2, 0.8 mM MgCl2, 10 mM HEPES pH ∼7.4 adjusted with TEA-OH/HCl, and ∼300mOsm. Cells were transferred to a QPatch 48 plate and gigaseal was formed. The plate was perfused with intracellular and extracellular buffer. […] In brief, cells were depolarized from resting potential of -80 mV to +20 mV and current was recorded. Data was plotted as percent inhibition vs concentration of the compound and IC50 values were generated using Graphpad Prism non-linear regression analysis.

[2] = target: T1, human N-type Ca channel; assay: Calcium influx assay (FDSS), KCl depolarization, Fluo8 dye; type: cell-based; set-up: host or cells: HEK 293
Method in brief: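 HEK293 cells stably expressing the human N-type Ca channel were loaded with Fluo8 and washed in choline-based buffer (pH 7.2, 2 mM CaCl2, 2 mM KCl). Cells were preincubated with serially diluted compound for 15 min in the dark. Ca influx was then recorded by fluorescence after depolarization with 100 mM KCl.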

[3] = N Type IC50 Data Qpatch Pulse=1, Pulse=1, concentration range 0.01-1 µM
[4] = read-out: N Type IC50 Data Qpatch Pulse=15, Pulse=15, concentration range 0.01-1 µM
[5] = HEK 293 cells expressing human N-type Ca channel, 100 mM KCl, read-out: N Type IC50 Data FDSS
[6] = N Type IC50 Data Qpatch Pulse=15, Pulse=15, concentration range 0.3-10 µM
[7] = read-out: Qpatch Pulse=1 (percent inhibition)
[8] = read-out: Qpatch Pulse=15 (percent inhibition)
[9] = N Type IC50 Data Qpatch Pulse=1, Pulse=1, concentration range 0.3-10 µM
[10] = Pulse=1, concentration range 0.01-0.3 µM
[11] = Pulse=15, concentration range 0.01-0.3 µM
[12] = N Type IC50 Data Qpatch Pulse=1, Pulse=1, concentration range 0.01-0.3 µM
[13] = read-out: N Type IC50 Data Qpatch Pulse=1, Pulse=1, concentration range 0.01-1 µM

T1 sequence (Q00975 whole entry): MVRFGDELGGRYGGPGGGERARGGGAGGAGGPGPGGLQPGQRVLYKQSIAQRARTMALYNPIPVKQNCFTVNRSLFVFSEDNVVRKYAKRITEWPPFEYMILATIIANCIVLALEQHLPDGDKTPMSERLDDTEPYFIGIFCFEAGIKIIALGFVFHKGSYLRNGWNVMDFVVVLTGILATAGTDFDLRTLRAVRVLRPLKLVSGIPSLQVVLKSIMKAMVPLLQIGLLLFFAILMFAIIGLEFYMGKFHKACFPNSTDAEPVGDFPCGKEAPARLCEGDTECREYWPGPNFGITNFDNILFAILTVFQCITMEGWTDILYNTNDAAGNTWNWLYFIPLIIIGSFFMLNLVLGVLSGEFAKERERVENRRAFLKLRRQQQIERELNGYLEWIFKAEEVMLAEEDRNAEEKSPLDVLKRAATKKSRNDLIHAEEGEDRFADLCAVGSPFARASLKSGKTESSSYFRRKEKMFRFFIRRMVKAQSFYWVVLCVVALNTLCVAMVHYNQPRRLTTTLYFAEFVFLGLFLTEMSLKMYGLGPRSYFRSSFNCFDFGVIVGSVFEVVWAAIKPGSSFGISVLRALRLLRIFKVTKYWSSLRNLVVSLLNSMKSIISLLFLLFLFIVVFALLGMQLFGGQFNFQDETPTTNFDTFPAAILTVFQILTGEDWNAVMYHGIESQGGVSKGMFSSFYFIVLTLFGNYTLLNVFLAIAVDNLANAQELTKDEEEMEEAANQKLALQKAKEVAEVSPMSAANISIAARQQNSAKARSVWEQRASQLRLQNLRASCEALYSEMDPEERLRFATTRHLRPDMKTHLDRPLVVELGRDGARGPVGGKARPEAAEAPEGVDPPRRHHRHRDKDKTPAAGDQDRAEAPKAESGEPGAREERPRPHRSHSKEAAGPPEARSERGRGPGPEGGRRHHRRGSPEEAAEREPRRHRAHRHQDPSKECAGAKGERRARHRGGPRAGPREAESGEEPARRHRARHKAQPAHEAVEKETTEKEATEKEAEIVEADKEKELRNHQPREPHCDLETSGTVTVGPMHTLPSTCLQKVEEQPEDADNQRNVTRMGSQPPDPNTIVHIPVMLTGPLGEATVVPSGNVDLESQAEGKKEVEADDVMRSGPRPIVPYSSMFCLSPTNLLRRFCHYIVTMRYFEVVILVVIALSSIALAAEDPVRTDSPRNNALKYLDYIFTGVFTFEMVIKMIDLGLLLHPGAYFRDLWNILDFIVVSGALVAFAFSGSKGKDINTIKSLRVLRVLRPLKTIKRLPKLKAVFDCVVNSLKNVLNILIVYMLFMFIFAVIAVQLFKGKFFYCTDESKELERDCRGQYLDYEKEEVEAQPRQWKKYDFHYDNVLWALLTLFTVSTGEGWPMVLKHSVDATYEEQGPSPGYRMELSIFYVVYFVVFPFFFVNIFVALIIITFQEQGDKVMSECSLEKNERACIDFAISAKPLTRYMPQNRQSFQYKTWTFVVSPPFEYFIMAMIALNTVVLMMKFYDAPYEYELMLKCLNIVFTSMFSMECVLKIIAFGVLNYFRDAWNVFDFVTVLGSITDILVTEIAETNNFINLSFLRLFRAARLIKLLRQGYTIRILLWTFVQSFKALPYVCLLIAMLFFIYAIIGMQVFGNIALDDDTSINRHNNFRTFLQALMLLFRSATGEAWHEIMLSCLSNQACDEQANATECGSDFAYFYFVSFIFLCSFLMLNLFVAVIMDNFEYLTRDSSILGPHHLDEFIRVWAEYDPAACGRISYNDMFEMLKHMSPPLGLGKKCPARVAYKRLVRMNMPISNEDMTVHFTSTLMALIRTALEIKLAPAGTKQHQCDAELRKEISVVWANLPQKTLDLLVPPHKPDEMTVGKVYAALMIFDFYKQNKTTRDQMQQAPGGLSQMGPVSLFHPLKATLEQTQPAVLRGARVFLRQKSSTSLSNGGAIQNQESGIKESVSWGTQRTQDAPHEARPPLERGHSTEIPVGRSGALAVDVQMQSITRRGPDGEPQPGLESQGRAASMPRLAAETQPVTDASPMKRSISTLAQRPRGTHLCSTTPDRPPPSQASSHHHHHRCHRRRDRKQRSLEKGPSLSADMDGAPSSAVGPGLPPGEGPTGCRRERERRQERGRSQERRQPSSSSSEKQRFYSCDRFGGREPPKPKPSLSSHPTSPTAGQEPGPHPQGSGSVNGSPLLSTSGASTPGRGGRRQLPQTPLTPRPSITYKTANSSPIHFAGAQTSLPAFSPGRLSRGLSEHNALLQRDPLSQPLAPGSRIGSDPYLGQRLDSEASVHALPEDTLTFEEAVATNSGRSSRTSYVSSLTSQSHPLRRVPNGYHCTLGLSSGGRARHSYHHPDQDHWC
T1 sequence (P54284 whole entry partner): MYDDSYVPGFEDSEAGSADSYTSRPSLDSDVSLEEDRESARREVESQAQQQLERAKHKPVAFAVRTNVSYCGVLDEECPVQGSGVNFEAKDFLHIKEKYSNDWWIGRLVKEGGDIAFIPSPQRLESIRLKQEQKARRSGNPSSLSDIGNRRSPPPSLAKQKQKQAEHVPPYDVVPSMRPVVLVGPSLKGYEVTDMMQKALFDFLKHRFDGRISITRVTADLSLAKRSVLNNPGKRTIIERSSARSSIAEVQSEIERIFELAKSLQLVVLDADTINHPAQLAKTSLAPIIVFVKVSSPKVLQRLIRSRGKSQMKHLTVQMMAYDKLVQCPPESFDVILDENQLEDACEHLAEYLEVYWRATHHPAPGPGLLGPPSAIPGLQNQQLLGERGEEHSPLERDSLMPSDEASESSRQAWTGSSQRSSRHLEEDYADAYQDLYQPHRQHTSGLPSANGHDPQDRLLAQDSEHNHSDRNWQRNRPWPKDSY
T1 sequence (P54289 25-956 partner limits assumed): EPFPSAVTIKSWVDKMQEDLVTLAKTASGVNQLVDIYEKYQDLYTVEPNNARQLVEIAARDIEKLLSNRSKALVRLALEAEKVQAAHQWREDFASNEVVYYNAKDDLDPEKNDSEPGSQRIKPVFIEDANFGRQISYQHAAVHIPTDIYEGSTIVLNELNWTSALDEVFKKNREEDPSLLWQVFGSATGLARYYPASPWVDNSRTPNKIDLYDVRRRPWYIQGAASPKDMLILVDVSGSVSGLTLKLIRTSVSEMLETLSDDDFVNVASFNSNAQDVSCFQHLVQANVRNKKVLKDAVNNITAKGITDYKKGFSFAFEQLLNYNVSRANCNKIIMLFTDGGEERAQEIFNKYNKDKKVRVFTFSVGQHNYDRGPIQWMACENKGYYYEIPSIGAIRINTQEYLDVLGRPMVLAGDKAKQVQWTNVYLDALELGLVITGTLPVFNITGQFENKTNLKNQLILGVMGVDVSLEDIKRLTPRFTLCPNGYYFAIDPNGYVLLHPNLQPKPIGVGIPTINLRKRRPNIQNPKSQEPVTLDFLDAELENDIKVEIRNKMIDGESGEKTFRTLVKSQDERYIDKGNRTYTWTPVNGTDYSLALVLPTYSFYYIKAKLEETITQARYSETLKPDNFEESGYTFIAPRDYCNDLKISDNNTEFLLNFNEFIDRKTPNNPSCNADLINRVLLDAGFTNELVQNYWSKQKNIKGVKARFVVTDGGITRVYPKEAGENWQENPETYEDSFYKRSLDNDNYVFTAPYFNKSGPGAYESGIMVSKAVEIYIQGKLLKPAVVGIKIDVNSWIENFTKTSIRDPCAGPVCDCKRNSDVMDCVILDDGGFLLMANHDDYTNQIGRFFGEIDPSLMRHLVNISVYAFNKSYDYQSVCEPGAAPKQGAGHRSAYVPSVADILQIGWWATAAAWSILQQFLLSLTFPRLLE
T1 sequence (P54289 957-1103 partner limits assumed): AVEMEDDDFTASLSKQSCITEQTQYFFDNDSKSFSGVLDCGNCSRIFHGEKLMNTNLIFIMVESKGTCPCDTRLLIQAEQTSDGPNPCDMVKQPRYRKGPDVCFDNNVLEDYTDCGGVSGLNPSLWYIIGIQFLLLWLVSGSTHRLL

`COc1ncccc1-c1nc(C2CC(C)(C)OC(C)(C)C2)cn1-c1ccc(C#N)cc1F` [Compound 76, 3-fluoro-4-(2-(2-methoxypyridin-3-yl)-4-(2,2,6,6-tetramethyltetrahydro-2H-pyran-4-yl)-1H-imidazol-1-yl)benzonitrile] gave an IC50 [1, 3] greater than 1 µM, an IC50 [1, 4] greater than 1 µM and an IC50 [2, 5] of 0.151 µM.

For `COc1cc(-n2cc(C3CC(C)(C)OC(C)(C)C3)nc2-c2cccnc2OC)ccc1C#N` [Compound 77, 2-methoxy-4-(2-(2-methoxypyridin-3-yl)-4-(2,2,6,6-tetramethyltetrahydro-2H-pyran-4-yl)-1H-imidazol-1-yl)benzonitrile], the IC50 [1, 3] was greater than 1 µM, the IC50 [1, 4] was greater than 1 µM and the IC50 [2, 5] was 10 µM.

Compound `COc1ncccc1-c1nc(C2CC(C)(C)OC(C)(C)C2)cn1-c1ccc(C#N)c(Cl)c1` [Compound 78, 2-chloro-4-(2-(2-methoxypyridin-3-yl)-4-(2,2,6,6-tetramethyltetrahydro-2H-pyran-4-yl)-1H-imidazol-1-yl)benzonitrile] has an IC50 [1, 4] greater than 1 µM and an IC50 [2, 5] of 0.234 µM.

`COc1ncccc1-c1nc(C2CC(C)(C)OC(C)(C)C2)cn1-c1ccc(F)c(C#N)c1` [Compound 79, 2-fluoro-5-(2-(2-methoxypyridin-3-yl)-4-(2,2,6,6-tetramethyltetrahydro-2H-pyran-4-yl)-1H-imidazol-1-yl)benzonitrile] gave an IC50 [1, 6] of 3.6 µM, an inhibition at 10 µM [1, 7] of 29% and an IC50 [2, 5] of 1.33 µM.

In the case of `COc1ncccc1-c1nc(C2CC(C)(C)OC(C)(C)C2)cn1-c1ccc(C#N)c(F)c1` [Compound 80, 2-fluoro-4-(2-(2-methoxypyridin-3-yl)-4-(2,2,6,6-tetramethyltetrahydro-2H-pyran-4-yl)-1H-imidazol-1-yl)benzonitrile], the inhibition at 10 µM [1, 8] is reported as 28% and the IC50 [2, 5] is reported as 0.333 µM.

For `COc1ccccc1-c1nc(C2CC(C)(C)OC(C)(C)C2)cn1-c1ccc(C#N)c(F)c1` [Compound 81, 2-fluoro-4-(2-(2-methoxyphenyl)-4-(2,2,6,6-tetramethyltetrahydro-2H-pyran-4-yl)-1H-imidazol-1-yl) benzonitrile], the IC50 [1, 9] was 6.7 µM, the IC50 [1, 6] was 2.8 µM and the IC50 [2, 5] was 0.201 µM.

With `COc1ncccc1-c1nc(C2CC(C)(C)OC(C)(C)C2)cn1-c1cc(F)c(C#N)c(F)c1` [Compound 82, 2,6-difluoro-4-(2-(2-methoxypyridin-3-yl)-4-(2,2,6,6-tetramethyltetrahydro-2H-pyran-4-yl)-1H-imidazol-1-yl) benzonitrile] the “N Type IC50 Data Qpatch Pulse=1” value [1, 10] was “poor fit(0.01-0.3 µM)”, the “N Type IC50 Data Qpatch Pulse=15” value [1, 11] was “poor fit(0.01-0.3 µM)” and the IC50 [2, 5] was 3.26 µM.

With `COc1ccccc1-c1nc(C2CC(C)(C)OC(C)(C)C2)cn1-c1c(F)cc(C#N)cc1F` [Compound 83, 3,5-difluoro-4-(2-(2-methoxyphenyl)-4-(2,2,6,6-tetramethyltetrahydro-2H-pyran-4-yl)-1H-imidazol-1-yl)benzonitrile] the “N Type IC50 Data Qpatch Pulse=1” value [1, 10] was “poor fit(0.01-0.3 µM)”, the “N Type IC50 Data Qpatch Pulse=15” value [1, 11] was “poor fit(0.01-0.3 µM)” and the IC50 [2] was 0.049 µM.

Work on `COc1ncccc1-c1nc(C2CC(C)(C)OC(C)(C)C2)cn1-c1ccc(Cl)c(C#N)c1` [Compound 84, 2-chloro-5-(2-(2-methoxypyridin-3-yl)-4-(2,2,6,6-tetramethyltetrahydro-2H-pyran-4-yl)-1H-imidazol-1-yl)benzonitrile] yielded an IC50 [1, 4] greater than 1 µM and an IC50 [2, 5] of 0.362 µM.

With `COc1ccc(-n2cc(C3CC(C)(C)OC(C)(C)C3)nc2-c2cccnc2OC)cc1C#N` [Compound 85, 2-methoxy-5-(2-(2-methoxypyridin-3-yl)-4-(2,2,6,6-tetramethyltetrahydro-2H-pyran-4-yl)-1H-imidazol-1-yl)benzonitrile] the IC50 [1, 4] was greater than 1 µM and the IC50 [2, 5] was 6.48 µM.

`COc1ncncc1-c1nc(C2CC(C)(C)OC(C)(C)C2)cn1-c1ccc(C#N)cc1` [Compound 86, 4-(2-(4-methoxypyrimidin-5-yl)-4-(2,2,6,6-tetramethyltetrahydro-2H-pyran-4-yl)-1H-imidazol-1-yl)benzonitrile] gave an IC50 [1, 4] greater than 1 µM and an IC50 [2, 5] of 1.3 µM.

With `COc1nccnc1-c1nc(C2CC(C)(C)OC(C)(C)C2)cn1-c1ccc(C#N)cc1` [Compound 87, 4-(2-(3-methoxypyrazin-2-yl)-4-(2,2,6,6-tetramethyltetrahydro-2H-pyran-4-yl)-1H-imidazol-1-yl)benzonitrile] the “N Type IC50 Data Qpatch Pulse=1” value [1, 10] was “poor fit(0.01-0.3 µM)”, the “N Type IC50 Data Qpatch Pulse=15” value [1, 11] was “poor fit(0.01-0.3 µM)” and the IC50 [2, 5] was 6.2 µM.

With `COc1nccnc1-c1nc(C2CC(C)(C)OC(C)(C)C2)cn1-c1ccc(C#N)c(F)c1` [Compound 88, 2-fluoro-4-(2-(3-methoxypyrazin-2-yl)-4-(2,2,6,6-tetramethyltetrahydro-2H-pyran-4-yl)-1H-imidazol-1-yl)benzonitrile] the IC50 [1, 12] was 0.349 µM, the “N Type IC50 Data Qpatch Pulse=15” value [1, 11] was “poor fit(0.01-0.3 µM)” and the IC50 [2, 5] was 2.17 µM.

`CCOc1ncccc1-c1nc(C2CC(C)(C)OC(C)(C)C2)cn1-c1ccc(C#N)c(F)c1` [Compound 89, 4-(2-(2-ethoxypyridin-3-yl)-4-(2,2,6,6-tetramethyltetrahydro-2H-pyran-4-yl)-1H-imidazol-1-yl)-2-fluorobenzonitrile] was tested, and the IC50 [1, 12] was 0.517 µM, the “N Type IC50 Data Qpatch Pulse=15” value [1, 11] was “poor fit(0.01-0.3 µM)” and the IC50 [2, 5] was 0.205 µM.

With `COc1ccccc1-c1nc(C2CC(C)(C)OC(C)(C)C2)c(C)n1-c1ccc(Cl)cc1` [Compound 90, 1-(4-chlorophenyl)-2-(2-methoxyphenyl)-5-methyl-4-(2,2,6,6-tetramethyltetrahydro-2H-pyran-4-yl)-1H-imidazole] the “N Type IC50 Data Qpatch Pulse=1” value [1, 10] was “poor fit(0.01-0.3 µM)”, the “N Type IC50 Data Qpatch Pulse=15” value [1, 11] was “poor fit(0.01-0.3 µM)” and the IC50 [2, 5] was 0.12 µM.

Compound `COc1ncccc1-c1nc(C2CC(C)(C)OC(C)(C)C2)c(Cl)n1-c1ccc(C#N)cc1` [Compound 91, 4-(5-chloro-2-(2-methoxypyridin-3-yl)-4-(2,2,6,6-tetramethyltetrahydro-2H-pyran-4-yl)-1H-imidazol-1-yl)benzonitrile] has an inhibition at 10 µM [1, 7] of 58%, an inhibition at 10 µM [1, 8] of 62% and an IC50 [2, 5] of 1.43 µM.

With `COc1ncccc1-c1nc(C2CC(C)(C)OC(C)(C)C2)c(Cl)n1-c1ccc(F)cc1` [Compound 92, 3-(5-chloro-1-(4-fluorophenyl)-4-(2,2,6,6-tetramethyltetrahydro-2H-pyran-4-yl)-1H-imidazol-2-yl)-2-methoxypyridine] the IC50 [1, 3] was 0.253 µM, the IC50 ([1]; N Type IC50 Data Qpatch Pulse=15, Pulse=15, concentration range 0.01-1 µM) was 0.269 µM and the IC50 [2, 5] was 0.041 µM.

`COc1ncccc1-c1nc(C2CC(C)(C)OC(C)(C)C2)c(Cl)n1-c1ccc(Cl)cc1` [Compound 93, 3-(5-chloro-1-(4-chlorophenyl)-4-(2,2,6,6-tetramethyltetrahydro-2H-pyran-4-yl)-1H-imidazol-2-yl)-2-methoxypyridine] gave an IC50 [1, 9] of 6.5 µM, an IC50 [1, 6] of 1.8 µM and an IC50 [2] of 0.15 µM.

For `COc1ccccc1-c1nc(C2CC(C)(C)OC(C)(C)C2)cn1S(=O)(=O)C(F)(F)F` [Compound 94, 2-(2-methoxyphenyl)-4-(2,2,6,6-tetramethyltetrahydro-2H-pyran-4-yl)1((trifluoromethyl)sulfonyl)-1H-imidazole], the IC50 [1, 13] was greater than 1 µM, the IC50 [1, 4] was greater than 1 µM and the IC50 [2, 5] was 0.551 µM.

With `COc1ccccc1-c1nc(C2CC(C)(C)OC(C)(C)C2)cn1S(=O)(=O)C1CC1` [Compound 95, 1-(cyclopropylsulfonyl)-2-(2-methoxyphenyl)-4-(2,2,6,6-tetramethyltetrahydro-2H-pyran-4-yl)-1H-imidazole] the IC50 [1, 13] was greater than 1 µM, the IC50 [1, 4] was greater than 1 µM and the IC50 [2, 5] was 10 µM.

For `COc1ccccc1-c1nc(C2CC(C)(C)OC(C)(C)C2)cn1S(=O)(=O)CC(C)C` [Compound 96, 1-(isobutylsulfonyl)-2-(2-methoxyphenyl)-4-(2,2,6,6-tetramethyltetrahydro-2H-pyran-4-yl)-1H-imidazole], the IC50 [1, 6] was 5.4 µM and the IC50 [2] was 0.768 µM.

For `COc1ccccc1-c1nc(C2CC(C)(C)OC(C)(C)C2)cn1S(=O)(=O)c1ccc(Cl)cc1` [Compound 97, 1-((4-chlorophenyl)sulfonyl)-2-(2-methoxyphenyl)-4-(2,2,6,6-tetramethyltetrahydro-2H-pyran-4-yl)-1H-imidazole], the IC50 [1, 6] was 3.08 µM and the IC50 [2, 5] was 0.515 µM.

`COc1ccccc1-c1nc(C2CC(C)(C)OC(C)(C)C2)cn1S(=O)(=O)c1ccc(F)cc1` [Compound 98, 1-((4-fluorophenyl)sulfonyl)-2-(2-methoxyphenyl)-4-(2,2,6,6-tetramethyltetrahydro-2H-pyran-4-yl)-1H-imidazol,] gave an IC50 [1, 9] of 9.02 µM, an IC50 [1, 6] of 3.6 µM and an IC50 [2, 5] of 0.692 µM.

`COc1ccccc1-c1nc(C2CC(C)(C)OC(C)(C)C2)cn1Cc1ccc(C#N)cc1` [Compound 99, 4-((2-(2-methoxyphenyl)-4-(2,2,6,6-tetramethyltetrahydro-2H-pyran-4-yl)-1H-imidazol-1-yl)methyl)benzonitrile] was tested, and the IC50 [1, 13] was greater than 1 µM, the IC50 [1, 4] was greater than 1 µM and the IC50 [2, 5] was 10.9 µM.

Compound `COc1ccccc1-c1nc(C2CC(C)(C)OC(C)(C)C2)cn1Cc1cccc(C#N)c1` [Compound 101, 3-((2-(2-methoxyphenyl)-4-(2,2,6,6-tetramethyltetrahydro-2H-pyran-4-yl)-1H-imidazol-1-yl)methyl) benzonitrile] has an IC50 [1, 3] greater than 1 µM, an IC50 [1, 4] greater than 1 µM and an IC50 [2, 5] of 3.58 µM.

`COc1ccccc1-c1nc(C2(O)CC(C)(C)OC(C)(C)C2)cn1-c1ccc(Cl)cc1` [Compound 102, 4-(1-(4-chlorophenyl)-2-(2-methoxyphenyl)-1H-imidazol-4-yl)-2,2,6,6-tetramethyltetrahydro-2H-pyran-4-ol] was tested, and the IC50 [1, 6] was 1.74 µM, the inhibition at 10 µM [1, 7] was 48% and the IC50 [2, 5] was 0.037 µM.
